Assay [1] relates to Hh pathway, Sufu −/− MEFs with SUFU-FL. Description: Hh pathway reactivation in Sufu −/− MEFs expressing SUFU-FL. The assay is classed as cell-based, mouse. To be noted: 48–72 h, luciferase. On the procedure:
(§1) Sufu ^−/− mouse embryonic fibroblast (MEF) cells (Svärd et al., 2006[▶]) were transfected with a mixture of p8x3′Gli-BS LucII or p8x3′Gli-mBS LucII reporter constructs (Sasaki et al., 1997[▶]; generous gifts from Hiroshi Sasaki) together with pRL-SV40 (Promega) internal control using Lipofectamine LTX with Plus reagent (Invitrogen) according to the manufacturer’s instructions. Following transfection, Sufu ^−/− MEF cells were grown until the culture reached confluency (24–48 h) and the cells were then switched to low-serum medium (0.5% FBS) with 100–200 nM SAG (kindly provided by Jan Bergman, Karolinska Institutet), 10 µM purmorphamine (Calbiochem) or Shh conditioned medium (1:4) and grown for an additional 48–72 h. Cell lysis and luciferase activity measurements were performed using a Dual Luciferase Activity Assay Kit (Promega). For statistical evaluation of reporter gene assays, a one-tailed paired Student’s t-test was used. All activity measurements were performed at least three times in independent experiments.

Assay [2] concerns Hh pathway, Sufu −/− MEFs with SUFU-Δ. Nature of the assay: Hh pathway reactivation in Sufu −/− MEFs expressing SUFU-Δ. It counts as cell-based, mouse. As to conditions: 48–72 h, luciferase. As for the experimental part:
as §1

Assay [3] deals with Hh pathway, Sufu −/− MEFs with SUFU-SH. Nature of the assay: Hh pathway reactivation in Sufu −/− MEFs expressing SUFU-SH. The assay is classed as cell-based, mouse. To be noted: 48–72 h, luciferase. As for the experimental part: as §1
Assay [4] deals with Hh pathway, Sufu −/− MEFs with SUFU-IDRfly. Description: Hh pathway reactivation in Sufu −/− MEFs expressing SUFU-IDRfly. To be noted: SAG 100–200 nM, 48–72 h, luciferase. It counts as cell-based, mouse. On the procedure: as §1
Assay [5] addresses T1, MBP-SUFU-FL (Homo sapiens, UniProt Q9UMX1).
T1 construct: containing residues 32–483 of human SUFU and a C-terminal hexahistidine tag; hexahistidine tag (C); made in house; host or cells: Escherichia coli JM109 (DE3)
Description: Microscale thermophoresis with FAM-GLI1p, MBP-SUFU-FL. As to conditions: binding to MBP-SUFU-FL; 50 nM FAM-GLI1p. On the procedure:
(§2) A 5-FAM-labelled peptide (FAM-GLI1p) comprising residues 115–131 of GLI1 (Supplementary Table S1b) was synthesized by Pepceuticals Ltd. A titration series of each recombinant protein was prepared by serial 1:1 dilutions in MST buffer (50 mM Tris–HCl pH 7.6, 150 mM NaCl, 10 mM MgCl2, 0.05% Tween-20) and mixed in a 1:1 ratio with FAM-GLI1p to give final concentrations of 50 nM FAM-GLI1p with MBP-SUFU constructs in the ranges 14.2–29 070 and 54–110 500 nM. Reactions were aspirated into glass capillaries and the thermophoretic movement of FAM-GLI1p was monitored using a Monolith NT.115 instrument (NanoTemper Technologies; Wienken et al., 2010[▶]), with a laser on for 30 s and off for 5 s and a laser power/voltage of 20% for MBP-SUFU-FL and the MBP-SUFU-FL mutants, 40% for MBP-SUFU-Δ and 80% for MBP-SUFU-SH. Fluorescence was measured before laser heating (F Cold) and after 30 s of laser-on time (F Hot). The normalized fluorescence F Hot/F Cold reflects the concentration ratio of labelled molecules. F Hot/F Cold was plotted directly and multiplied by a factor of […], yielding a relative change in fluorescence per thousand. K d was calculated from three independent thermophoresis measurements using NanoTemper software (NanoTemper Technologies).

The target of the next assay is T2, MBP-SUFU-Δ (Homo sapiens, UniProt Q9UMX1, DEL285-359/L360P/P281R/P282G/R280S/S279P).
T2 construct: subcloning different SUFU32–483 variants into vector pLJMBP4c; His tag (as in MBP-SUFU-FL; purified on HisTrap) (C); made in house; host or cells: Escherichia coli JM109 (DE3)
Nature of the assay: Microscale thermophoresis with FAM-GLI1p, MBP-SUFU-Δ. To be noted: binding to MBP-SUFU-Δ; 50 nM FAM-GLI1p. On the procedure: as §2
A general note: MST reads how a fluorescent partner responds to local heating, with and without ligand.

A further assay deals with MBP-SUFU-SH. Nature of the assay: Microscale thermophoresis with FAM-GLI1p, MBP-SUFU-SH. Also noted: species or system human. To be noted: binding to MBP-SUFU-SH; 50 nM FAM-GLI1p. On the procedure:
as §2

Assay [6] has as its target T1, MBP-SUFU-FL. Nature of the assay: HDX protection of MBP-SUFU-FL by GLI peptides. The assay is classed as binding. As for the experimental part: To compare amide HDX kinetics between MBP-SUFU-FL and MBP-SUFU-Δ, 4 µl of each protein (both at 11 mg ml^−1 in 50 mM Na HEPES pH 7.0, 50 mM NaCl, 5 mM β-mercaptoethanol, 1.5 mM maltose) was mixed with 13 µl deuterated buffer with the same ionic composition as the protein sample. For MBP-SUFU-FL–Gli3p interaction experiments, 45 µl MBP-SUFU-FL (11 mg ml^−1) was mixed with 5 µl Gli3p (6 mM; a 5.5-fold excess) and incubated for 1 h. In the latter case, exchange was initiated by mixing 4 µl MBP-SUFU-FL–Gli3p with 13 µl deuterated buffer with the same ionic composition as the sample. Each reaction was stopped by adding 9 µl quenching solution (4 M urea, 50 mM TCEP, 1% TFA) and flash-freezing in liquid N2. Deuteration reactions were incubated for 60, 300, 600 and 1800 s for the MBP-SUFU-FL and MBP-SUFU-Δ experiments and 300, 600 and 1800 s for the MBP-SUFU-FL–Gli3p interaction experiments (at 4°C, in triplicate). A 24 h incubation was used as a fully deuterated sample for back-exchange correction.
Samples were analyzed in a semi-automated HDX-MS system (Biomotif AB, Sweden) in which manually injected samples were automatically digested, cleaned and separated at 1.0°C. […]

The mark [7] stands for this setting: purmorphamine 10 µM, p ≤ 0.05, n = 5.

Where a SMILES comes first, the peptide text is derived from it. The star is where a group is joined. 5FAM = O=C1OC2(c3ccc(O)cc3Oc3cc(O)ccc32)c2ccc(C(=O)*)cc21

T1 sequence (Q9UMX1 32-483, other chains not shown): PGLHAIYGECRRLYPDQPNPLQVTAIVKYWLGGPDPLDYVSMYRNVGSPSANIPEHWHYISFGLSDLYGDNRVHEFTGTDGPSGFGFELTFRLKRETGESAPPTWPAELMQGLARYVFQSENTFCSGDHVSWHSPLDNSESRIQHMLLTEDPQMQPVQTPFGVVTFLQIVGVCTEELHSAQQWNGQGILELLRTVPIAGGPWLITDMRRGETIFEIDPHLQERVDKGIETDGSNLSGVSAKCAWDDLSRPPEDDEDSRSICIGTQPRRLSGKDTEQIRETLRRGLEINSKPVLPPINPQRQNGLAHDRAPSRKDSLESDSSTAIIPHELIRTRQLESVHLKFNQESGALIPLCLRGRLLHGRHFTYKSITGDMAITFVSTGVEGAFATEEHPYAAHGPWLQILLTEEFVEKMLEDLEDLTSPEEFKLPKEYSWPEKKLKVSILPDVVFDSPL
T2 sequence (Q9UMX1 with tags, fused parts or gaps S279P/R280S/P281R/P282G/DEL285-359/L360P limits assumed, other chains not shown): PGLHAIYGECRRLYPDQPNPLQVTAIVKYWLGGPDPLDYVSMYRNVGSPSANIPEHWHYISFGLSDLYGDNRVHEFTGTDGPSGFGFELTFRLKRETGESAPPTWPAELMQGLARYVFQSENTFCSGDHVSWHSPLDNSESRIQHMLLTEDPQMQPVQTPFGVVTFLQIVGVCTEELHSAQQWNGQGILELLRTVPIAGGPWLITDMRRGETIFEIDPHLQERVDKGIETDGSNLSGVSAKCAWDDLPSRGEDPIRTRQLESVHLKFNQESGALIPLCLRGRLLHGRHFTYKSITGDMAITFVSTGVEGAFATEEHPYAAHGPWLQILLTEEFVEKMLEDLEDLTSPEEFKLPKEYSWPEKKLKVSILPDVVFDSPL

On to `CNC1CCC(N(Cc2cccc(-c3ccncc3)c2)C(=O)c2sc3ccccc3c2Cl)CC1` (stereo not shown) [SAG], for which the pathway reactivation entry in assay [1] (SAG 100–200 nM) is on record as “overrode repression by the full-length protein”; in assay [2] (SAG 100–200 nM, p ≤ 0.005, n = 10), “failed to reactivate the pathway”; in assay [3] (SAG 100–200 nM, p ≤ 0.01, n = 4), “failed to reactivate the pathway”; in assay [4], “repression could not be relieved”.
As for `CC[C@H](C)[C@H](NC(=O)[C@H](CO)NC(=O)[C@H](CC(C)C)NC(=O)[C@H](Cc1c[nH]cn1)NC(=O)CNC(=O)[C@H](Cc1ccc(O)cc1)NC(=O)[C@H](CO)NC(=O)CNC(=O)CNC(=O)[C@@H]1CCCN1C(=O)[C@H](CO)NC(=O)[C@@H](NC(=O)c1ccc2c(c1)C(=O)OC21c2ccc(O)cc2Oc2cc(O)ccc21)[C@@H](C)O)C(=O)NCC(=O)N[C@H](C(=O)N[C@@H](CCSC)C(=O)N[C@@H](CO)C(=O)N1CCC[C@H]1C(=O)O)[C@@H](C)O` [FAM-GLI1p] (5FAM-TSPGGSYGHLSIGTMSP-OH; C-terminus assumed), the “thermophoretic movement of the peptide on binding” value was “increased the rate of movement in the thermophoretic gradient” on MBP-SUFU-FL [5], “decreased it” on MBP-SUFU-Δ and “decreased it” in the assay with MBP-SUFU-SH.
As for “GLI3p: corresponding peptide from human GLI3; residues 328–344 (SSASGSYGHLSASAISP)”, the “protection of MBP-SUFU-FL from deuteration (HDX)” value with MBP-SUFU-FL [6] (Gli3p 5.5-fold excess, 1 h pre-incubation, 300, 600 and 1800 s exchange at 4°C, in triplicate, LC-MS) was “more protected from exchange in the presence of the peptide”.
On to `c1ccc2c(Oc3nc(Nc4ccc(N5CCOCC5)cc4)c4ncn(C5CCCCC5)c4n3)cccc2c1` [Purmorphamine], for which the pathway reactivation entry in assay [1] (setting [7]) was “the same disparate effects on SUFU-FL and SUFU-Δ repressive function”; in assay [2] (setting [7]) it was “the same disparate effects on SUFU-FL and SUFU-Δ repressive function”; in assay [2] (purmorphamine 10 µM, p ≤ 0.05, n = 5, listed as purmorphamine) it was “Lack of Hh pathway reactivation”; in assay [3] (purmorphamine 10 µM), “Lack of Hh pathway reactivation”.
Consider “GLI3p-SHC: GLI3 peptide that terminates at His336; residues 328–336 (SSASGSYGH)”, for which the “protection of MBP-SUFU-FL from deuteration (HDX)” value with MBP-SUFU-FL [6] (GLI3 peptide that terminates at His336, data not shown) is reported as “unable to protect MBP-SUFU-FL from deuteration”.

(Values after publication PMC3852661, “Structural basis of SUFU–GLI interaction in human Hedgehog signalling regulation” (Acta Crystallographica Section D: Biological Crystallography, 2013).)
